Where two headings read alike, the source gives them in different places.
Key:
[1] = Release of iron ions from the prodrugs in the presence of hydrogen peroxide (2,2'-bipyridine absorbance); assay type: physicochemical; conditions: H2O2 (1 mM), 22°C, 100 min, MOPS buffer pH 7.5; relative to FeSO4 (100 µM)
Protocol: Monitoring release of iron ions from the prodrugs A-E, Comparative Example and control compounds in the presence of hydrogen peroxide (Table 1):
Solution of a ferrocene complex (10 µL, 10 mM in DMF containing 2% water and 1% sodium ascorbate) was diluted with MOPS buffer (990 µL, 100 mM, pH 7.5). Such probes were incubated with H2O2 (1 mM) at 22°C for 100 min. Then the reaction was quenched by adding sodium dithionite (20 µL, 1 M in water) that converts Fe^3+ into Fe^2+. Finally, 2,2'-bipyridine solution (3 µL, 100 mM in DMF) was added to form dark red [Fe(2,2'-bipyridine)3]^2+ complex (λmax= 519 nm). FeSO4 sulfate (100 µM) was used as a positive control to determine the absorbance intensity when the ferrocene complexes were completely converted by H2O2 to free Fe^2+. […] The data are provided in Table 2 and were determined by using the following formulae: iron release efficacy = (A519nm(prodrug) - A519nm(buffer)) / (A519nm(FeSO4) - A519nm(buffer)), where A519nm(prodrug) is absorbance at 519 nm of a prodrug treated with H2O2 and 2,2'-bipyridine as described above, A519nm(FeSO4) is absorbance at 519 nm of FeSO4 treated in a similar way as a prodrug and A519nm(buffer) is absorbance at 519 nm of the buffer only treated in a similar way as a prodrug.

[2] = Generation of ROS in vitro (DCFH fluorescence, cell-free); assay type: biochemical; conditions: iron complex 100 µM, H2O2 (10 mM), glutathione (5 mM), pH 7.5, relative to FeSO4
Protocol: Monitoring generation of ROS in the presence of the prodrugs A-E, Comparative Example and control compounds (Table 1):
2',7'-Dichlorfluorescin diacetate (DCFH-DA, 4.9 mg) was dissolved in DMF (100 µL) and mixed with aqueous NaOH (0.1 M, 900 µL). The resulting mixture was incubated for 30 min at 22°C in the dark to obtain the stock solution of 2',7'-dichlorfluorescin (DCFH, 10 mM). Next, the solution (1 mL) containing DCFH (10 µM), MOPS buffer (100 mM, pH 7.5), EDTA (10 mM), glutathione (5 mM) and H2O2 (10 mM) was prepared. Monitoring of fluorescence (λex= 501 nm, λem= 531 nm) of this solution was started. After 3 min, an iron complex (100 µM: ferrocene prodrugs A-E, Comparative Example, negative or positive controls 1 a, P) was added and the fluorescence monitoring was continued. Efficacy of ROS generation was then determined 17 and 37 min after the addition of the iron complex by using the following formulae: efficacy = (F(prodrug) - F0) / (F(FeSO4) - F0), where F(prodrug) is fluorescence of a mixture containing prodrug and treated as described above, F(FeSO4) is fluorescence of a mixture containing FeSO4; F0 is fluorescence of a mixture containing no iron complex.

[3] = TLC retention factor as measure of hydrophobicity; assay type: physicochemical; conditions: support - SiO2, eluent - hexane / ethyl acetate (3/1, v/v); proportional to hydrophobicity
HL-60 cells = test: Generation of ROS in cells (DCFH-DA, flow cytometry); assay type: cell-based, Human; conditions: 50 µM, 4 h
Protocol: Generation of ROS in HL-60 cells in the presence the prodrugs, comparative example C.-E. and controls (Table 3)
The probe of HL-60 cells was taken from the cultivation medium (RPMI 1640 supplemented with 10 % FCS, 1 % L-glutamine and 1% penicillin). The medium was replaced for PBS-buffer to obtain the cell suspension with 10^6 cells per mL. DCFH-DA solution (1 µL, 10 mM in DMSO) was added to the suspension (1 mL) and incubated in the dark chamber filled with CO2 (5 %) at 37 °C for 5 min. Then, the cells were washed with PBS and RPMI 1640 (5 % FCS, 1 % L-glutamine, 1% penicillin) medium and an iron complex (10 µL of stock solutions, solvent: DMF containing 2 % water and 1 % sodium ascorbate, final concentration of the complex - 50 µM) was added. After 4 h of the incubation the fluorescence of live cells (λex = 488 nm, λem = 530 nm) in the suspensions was determined by using the flow cytometer. Efficacy of ROS generation was determined using the following formulae: efficacy = (F(prodrug) - F0) / (F(FeSO4) - F0), where F(prodrug) is mean fluorescence intensity of cells incubated with a prodrug and treated as described above, F(FeSO4) is mean fluorescence intensity of cells incubated with FeSO4; F0 is mean fluorescence intensity of cells, which were not treated with any iron complex.

[4] = system: Human promyelocytic leukemia cells (HL-60); test: Viability of HL-60 cells (propidium iodide, flow cytometry); assay type: cell-based; conditions: read-out: Toxicity of the complexes: IC50
Protocol: Determination of viability of HL-60 cells (Table 4)
HL-60 cells grown in RPMI 1640 medium supplemented with 10 % FCS, 1 % L-glutamine and 1% penicillin were centrifuged, the medium was replaced with RPMI 1640 medium (5 % FCS, 1 % L-glutamine, 1% penicillin) to obtain suspensions containing 10^6 cells per mL. Stock solutions of prodrugs of different concentrations (5 µL, solvent: DMF containing 2 % water and 1 % sodium ascorbate) were added to the cellular suspensions (500 µL) and incubated for specific periods of time. Four experiments were conducted for each concentration of the prodrug. At the end of the incubation period propidium iodide (PI, 1 µL, 1.5 mM in water) was added to label leaky cells and in 5 min the suspension of the cells was analyzed by using flow cytometry.

HL60-cells = test: Cell permeability of the prodrugs (boron/curcumin assay); assay type: cell-based, Human; conditions: 100 µM, 1 h, boron relative to comparative example C.-E.
Protocol: Assay for determination of cell Permeability of the prodrugs (Table 2) (according to the protocol described in J.Plant Nutr. Soil Sci. 1999,162,15-18) HL60-cells grown in RPMI 1640 medium supplemented with 10 % FCS, 1 % glutamine and 1% penicillin / streptomycin were centrifuged and the medium was replaced with RPMI 1640 medium (5 % FCS, 1 % L-glutamine, 1% penicillin) to obtain suspensions containing 10^6 cells per mL. Solutions of prodrugs (5 µL, solvent: DMF containing 2 % water and 1 % sodium ascorbate) were added to the suspensions (500 µL) and incubated for 1 h. The final concentration of the prodrugs in the suspensions was 100 µM. Then the cells were washed 3 times with PBS buffer (3 x 500 µL), treated with concentrated H2O2 solution (200 µL, 1 M) for 30 min and all volatiles were removed by lyophilization. Dry, lysed cells were washed with water (200 µL) and aqueous solution obtained was acidified with HCl (400 µL, 0.1 M). Then this solution was extracted with ethyl-1,3-hexandiol (100 µL, 10 % in CHCl3, v/v) and a portion of the organic phase obtained (40 µL) was mixed with H2SO4 / CH3CO2H (400 µL, 1/1, v/v). Curcumin solution in methylisobutylketone (500 µL, 2 mg in 1 mL of the solvent) was added and allowed to react for 24 h. The reaction was quenched by addition of water (1 mL). […] The value A(550 nm)-A(780 nm) was proportional to concentration of boron in the mixture. Amount of boron released from comparative example C.-E. was taken as a reference. All other values were determined relative to this reference. These values are compared in Table 2 with TLC retention factors, which are proportional to hydrophobicity of the prodrugs.

[5] = system: MES-SA human uterine cancer; conditions: ref. [6]; cited from earlier work
[6] = Formation of ferrocenium ions in the presence of H2O2 (absorbance at 300 nm); assay type: physicochemical; conditions: 100 µM complex in dimethylformamide, 9.8 mM H2O2 (Figure 1)
Protocol: Figure 1: Iron complexes (100 µM) were dissolved in dimethylformamide and concentrated H2O2 solution (30 % in water, 1 µL) was added: final H2O2 concentration was 9.8 mM. Light absorbance at 300 nm was monitored as a function of time.
Monitoring formation of ferrocenium ions from the prodrugs A and B, as well as comparative example C.-E
Formation of ferrocenium ions from ferrocenes correlates with the increased light absorption in the region between 250 and 350 nm. In this spectral region […] have intense charge transfer transitions, whereas ferrocenes have only weak transitions (Y.S. Sohn, D.N. Hendrickson, H.B. Grey, J. Am. Chem. Soc., 1971, 93(15), 3603 - 3612).

MIRW5 (melanoma) = conditions: cited from earlier work
A375 (melanoma) = conditions: cited from earlier work
C8161 (melanoma) = conditions: cited from earlier work
HEY (ovary) = conditions: cited from earlier work
BE (ovary) = conditions: cited from earlier work
C480 (colon) = conditions: cited from earlier work
MCF-7 (breast) = conditions: cited from earlier work
8226 (myeloma) = conditions: cited from earlier work
8226-Dox 40 (myeloma) = conditions: cited from earlier work
CIN8/27B (myeloma) = conditions: cited from earlier work
Fibroplasts = test: Viability of fibroplasts (MTT); assay type: cell-based; conditions: Fibroplasts (normal cells); read-out: Toxicity of the complexes: IC50
Protocol: Determination of viability of fibroplasts (Table 4)
Cells were grown either in DMEM medium (Dulbecco's Modified Eagle's Medium) supplemented with 10 % FCS, 1 % L-glutamine and 1% streptomycin/ penicillin up to 80-90 % confluence. Then the cells were trypsinated, washed, re-suspended in the same medium and spread in wells of a 96-wells microtiter plate (-25.000 cells per well, per 100 µL) and left standing at 37 °C in the chamber filled with CO2 (5 %) for 5 h. Stock solutions of prodrugs of different concentrations (1 µL, solvent: DMF / water (1/3, v/v) containing 1 % sodium ascorbate) were added to the wells and incubated for specific periods of time. Four experiments were conducted for each concentration of the prodrug.

[7] = 72 h incubation (value in brackets)

Efficacy of iron release in vitro [1]	TLC-retention factor (Rf) [3]	Relative efficiency of cell loading (HL60-cells)	Compound	Efficacy of ROS generation in vitro ([2]; 17 min incubation)	Efficacy of ROS release in cells (HL-60 cells)	IC50 [4] [µM]	Efficacy of ROS generation in vitro ([2]; 37 min incubation)	also measured
0.72	0.47		4-((N-Ethyl-N-Ferrocenylaminocarbonyl)oxymethyl)-2-phenylboronic acid pinacol ester [Prodrug A]	0.50	0.06 ± 0.03	26 ± 3		IC50 ([4]; listed as prodrug A): 12 to 26 µM
0	0.50	1.5	4-((N-(4-methylbenzyl)-N-Ferrocenylaminocarbonyl)oxymethyl)-2-phenylboronic acid pinacol ester [Prodrug C]	0.10		12 ± 1	0.42	IC50 ([4]; listed as prodrug C): 12 to 26 µM
			CC(=O)[O-].CC(=O)[O-].CCc1c(CC)c2cc3nc(cnc4cc(OCCOCCOCCOC)c(OCCOCCOCCOC)cc4ncc4nc(cc1[n-]2)C(CCCO)=C4C)C(C)=C3CCCO.[Gd+3] [Motexafin gadolinium]					IC50 [5]: ~12 µM
0	0.51	2.3	4-((N-(4-ethylbenzyl)-N-Ferrocenylaminocarbonyl)oxymethyl)-2-phenylboronic acid pinacol ester [Prodrug D]	0.09	0.03 ± 0.02	14	0.24	IC50 ([4]; listed as prodrug D): 12 to 26 µM
			N=C1NC(=O)N2CC12 (stereo not drawn) [Imexon (Amplimexon), Imexon]					IC50 (MIRW5 (melanoma); 24 h incubation): 315 µM; IC50 (MIRW5 (melanoma); [7]): 63 µM; IC50 (A375 (melanoma); 24 h incubation): 54 µM; IC50 (A375 (melanoma); [7]): 45 µM; IC50 (C8161 (melanoma); 24 h incubation): 72 µM; IC50 (C8161 (melanoma); [7]): 135 µM; IC50 (HEY (ovary); 24 h incubation): 180 µM; IC50 (HEY (ovary); [7]): 270 µM; IC50 (BE (ovary); 24 h incubation): 450 µM; IC50 (BE (ovary); [7]): 270 µM; IC50 (C480 (colon); 24 h incubation): 270 µM; IC50 (C480 (colon); [7]): 135 µM; IC50 (MCF-7 (breast); 24 h incubation): 270 µM; IC50 (MCF-7 (breast); [7]): 450 µM; IC50 (8226 (myeloma); 24 h incubation): 40 µM; IC50 (8226 (myeloma); [7]): 41 µM; IC50 (8226-Dox 40 (myeloma); 24 h incubation): 40 µM; IC50 (8226-Dox 40 (myeloma); [7]): 36 µM; IC50 (CIN8/27B (myeloma); 24 h incubation): 270 µM; IC50 (CIN8/27B (myeloma); [7]): 90 µM
0.09	0.46	1.8	4-((N-benzyl-N-Ferrocenylaminocarbonyl)oxymethyl)-2-phenylboronic acid pinacol ester [Prodrug B]	0.24	0.09 ± 0.02	12 ± 2	0.53	IC50 ([4]; listed as prodrug B): 12 to 26 µM; IC50 (Fibroplasts): > 50 µM

Compound	Efficacy of iron release in vitro [1]	TLC-retention factor (Rf) [3]	Relative efficiency of cell loading (HL60-cells)	Efficacy of ROS generation in vitro ([2]; 17 min incubation)	Efficacy of ROS release in cells (HL-60 cells)	IC50 [4] [µM]	Efficacy of ROS generation in vitro ([2]; 37 min incubation)	also measured
4-((N-Ferrocenylaminocarbonyl)oxymethyl)-2-methylphenylboronic acid pinacol ester [Prodrug E]	0.74	0.45		0.52	0.04 ± 0.02	39 ± 4		formation of ferrocenium ions [6]: rather decomposed with formation of iron ions

From patent EP2497775A1, “Ferrocene-based compounds and their use as ROS regulating prodrugs” (Ruprecht-Karls-Universität Heidelberg, priority 2011, dated 2012)
